Experiments:
BT-12 cells [1] = assay: Combination of tazemetostat with other agents, pretreatment model, luminescent cell viability (ATP) assay; assay type: cell-based; conditions: pretreatment model: 4 days tazemetostat, then 4 days agent alone or with tazemetostat, synergy by Loewe Volume, Fa-CI plots
Description: (§1) Proliferation data was read for luminescence. Calculations of synergy were performed using the Loewe Volume (Chalice Software) and Fa-CI plots were generated with Calcusyn.

CHLA-266 cells [2] = assay: as above; assay type: cell-based; conditions: pretreatment model: 4 days tazemetostat, then 4 days agent alone or with tazemetostat, synergy by Loewe Volume, Fa-CI plots
Description: as §1

A204 cells = assay: Combination of tazemetostat with other agents, co-treatment model, luminescent cell viability (ATP) assay; assay type: cell-based; conditions: grown for seven days
Description: (§2) Proliferation data was read for luminescence.

G401 cells = assay: as above; assay type: cell-based; conditions: grown for seven days
Description: as §2

AT/RT and MRT cell lines = assay: In vitro combination studies of tazemetostat in a panel of AT/RT and MRT cell lines; assay type: cell-based; conditions: cell line models of AT/RT and MRT
BT-12 cells [3] = assay: Antiproliferative activity of tazemetostat, 2D culture, luminescent cell viability assay; assay type: cell-based; conditions: 0.08-10 μM, days 4, 6, 7, 11 and 15
Description: (§3) Cell viability was measured in a luminescent cell viability assay and is represented by luminescence counts.

CHLA-266 cells [4] = assay: as above; assay type: cell-based; conditions: 0.08-10 μM, days 4, 6, 7, 11 and 15
Description: as §3

[5] = system: atypical teratoid rhabdoid tumor (AT/RT) cells; assay: Tazemetostat pre-treatment followed by X-ray irradiation, 11 day clonogenic assay; assay type: cell-based; conditions: primed seven days, X-ray 2 Gy
MRT = conditions: preclinical models of MRT; cited from earlier work

With `COc1cc([C@@H]2c3cc4c(cc3[C@@H](O[C@@H]3O[C@@H]5CO[C@@H](C)O[C@H]5[C@H](O)[C@H]3O)[C@H]3COC(=O)[C@H]23)OCO4)cc(OC)c1O` [Etoposide] the “Combination treatment with tazemetostat, BT-12” value (from here on “Combination treatment … BT-12”) (BT-12 cells [1]) was “Additive”, the “Combination treatment with tazemetostat, CHLA-266” value (“Combination treatment … CHLA-266” below) (CHLA-266 cells [2]) was “Additive” and the “Combination treatment with tazemetostat, A204” value (from here on “Combination treatment … A204”) (A204 cells) was “Additive”. For the same compound, the “Combination treatment with tazemetostat, G401” value (shortened to “Combination treatment … G401”) (G401 cells) was “Synergy”.

With `CC[C@@]1(O)C(=O)OCc2c1cc1n(c2=O)Cc2cc3c(CN(C)C)c(O)ccc3nc2-1` [Topotecan] the “Combination treatment … BT-12” value (BT-12 cells [1]) was “Synergy”, the “Combination treatment … CHLA-266” value (CHLA-266 cells [2]) was “Synergy” and the “Combination treatment … A204” value (A204 cells) was “Additive”. For the same compound, the “Combination treatment … G401” value (G401 cells) was “Synergy” and the “Antiproliferative effect of combination with tazemetostat” value (“Antiproliferative effect of combination” below) (AT/RT and MRT cell lines) was “synergistic interactions”.

With `CO[C@H]1C[C@@H]2CC[C@@H](C)[C@@](O)(O2)C(=O)C(=O)N2CCCC[C@H]2C(=O)O[C@H]([C@H](C)C[C@@H]2CC[C@@H](OCCO)[C@H](OC)C2)CC(=O)[C@H](C)/C=C(\C)[C@@H](O)[C@@H](OC)C(=O)[C@H](C)C[C@H](C)/C=C/C=C/C=C/1C` [Everolimus] the “Combination treatment … BT-12” value (BT-12 cells [1]) was “Synergy”, the “Combination treatment … CHLA-266” value (CHLA-266 cells [2]) was “Synergy” and the “Combination treatment … A204” value (A204 cells) was “Additive”. For the same compound, the “Combination treatment … G401” value (G401 cells) was “Additive”.

In the case of `Nc1ccn([C@@H]2O[C@H](CO)[C@@H](O)[C@@H]2O)c(=O)n1` [Cytarabine/Ara-C, Cytarabine], the “Combination treatment … BT-12” value (BT-12 cells [1]) is reported as “Synergy”, the “Combination treatment … CHLA-266” value (CHLA-266 cells [2]) is reported as “Additive” and the “Combination treatment … A204” value (A204 cells) is reported as “Additive”. The “Combination treatment … G401” value (G401 cells) was “Additive”.

With `CC[C@]1(O)C[C@H]2CN(CCc3c([nH]c4ccccc34)[C@@](C(=O)OC)(c3cc4c(cc3OC)N(C=O)[C@H]3[C@@](O)(C(=O)OC)[C@H](OC(C)=O)[C@]5(CC)C=CCN6CC[C@]43[C@@H]65)C2)C1` [Vincristine] the “Combination treatment … BT-12” value (BT-12 cells [1]) was “Synergy”, the “Combination treatment … BT-12” value (BT-12 cells [1]; listed as vincristine) was “synergy” and the “Combination treatment … CHLA-266” value (CHLA-266 cells [2]) was “Synergy”. The “Combination treatment … CHLA-266” value (CHLA-266 cells [2]; listed as vincristine) was “synergy”, the “Combination treatment … A204” value (A204 cells) was “Synergy” and the “Combination treatment … A204” value (A204 cells; listed as vincristine) was “synergy”. For the same compound, the “Combination treatment … G401” value (G401 cells; listed as vincristine) was “synergy” and the “Antiproliferative effect of combination” value (AT/RT and MRT cell lines) was “Synergistic activity”.

For `COc1cccc2c1C(=O)c1c(O)c3c(c(O)c1C2=O)C[C@@](O)(C(=O)CO)C[C@@H]3O[C@H]1C[C@H](N)[C@H](O)[C@H](C)O1` [Doxorubicin], the “Combination treatment … BT-12” value (BT-12 cells [1]) was “Synergy”, the “Combination treatment … BT-12” value (BT-12 cells [1]; listed as doxorubicin) was “synergy” and the “Combination treatment … CHLA-266” value (CHLA-266 cells [2]) was “Synergy”. For the same compound, the “Combination treatment … CHLA-266” value (CHLA-266 cells [2]; listed as doxorubicin) was “synergy”, the “Combination treatment … A204” value (A204 cells) was “Additive” and the “Combination treatment … A204” value (A204 cells; listed as doxorubicin) was “synergy”. For the same compound, the “Combination treatment … G401” value (G401 cells) was “Additive”, the “Combination treatment … G401” value (G401 cells; listed as doxorubicin) was “synergy” and the “Antiproliferative effect of combination” value (AT/RT and MRT cell lines) was “Synergistic activity”.

For `Nc1ccccc1NC(=O)c1ccc(CNC(=O)OCc2cccnc2)cc1` [Entinostat], the “Combination treatment … BT-12” value (BT-12 cells [1]) was “Synergy”, the “Combination treatment … BT-12” value (BT-12 cells [1]; listed as entinostat) was “synergy” and the “Combination treatment … CHLA-266” value (CHLA-266 cells [2]) was “Synergy”. For the same compound, the “Combination treatment … CHLA-266” value (CHLA-266 cells [2]; listed as entinostat) was “synergy”, the “Combination treatment … A204” value (A204 cells) was “Additive” and the “Combination treatment … A204” value (A204 cells; listed as entinostat) was “synergy”. The “Combination treatment … G401” value (G401 cells) was “Synergy”, the “Combination treatment … G401” value (G401 cells; listed as entinostat) was “synergy” and the “Antiproliferative effect of combination” value (AT/RT and MRT cell lines) was “enhanced the antiproliferative effect”.

With `N.N.O=C([O-])C1(C(=O)[O-])CCC1.[Pt+2]` [Carboplatin] the “Combination treatment … BT-12” value (BT-12 cells [1]) was “Additive”, the “Combination treatment … CHLA-266” value (CHLA-266 cells [2]) was “Additive” and the “Combination treatment … A204” value (A204 cells) was “Additive”.

With `CCN(c1cc(-c2ccc(CN3CCOCC3)cc2)cc(C(=O)NCc2c(C)cc(C)[nH]c2=O)c1C)C1CCOCC1` [tazemetostat] the “Cell death / cell viability” value (BT-12 cells [3]) was “Time and dose dependent increases in cell death”, the “Cell death / cell viability” value (CHLA-266 cells [4]) was “Time and dose dependent increases in cell death” and the “Clonogenic survival, tazemetostat priming prior to X-ray irradiation” value [5] was “reduction in clonogenic survival”. The “Tumor response to tazemetostat treatment” value (MRT) was “robust tumor regressions”.

In the case of `COc1cc(Nc2ncc3c(n2)-c2ccc(Cl)cc2C(c2c(F)cccc2OC)=NC3)ccc1C(=O)O` [Alisertib], the “Combination treatment … BT-12” value (BT-12 cells [1]) is reported as “Synergy”, the “Combination treatment … BT-12” value (BT-12 cells [1]; listed as alisertib) is reported as “synergy” and the “Combination treatment … CHLA-266” value (CHLA-266 cells [2]) is reported as “Synergy”. The “Combination treatment … CHLA-266” value (CHLA-266 cells [2]; listed as alisertib) was “synergy”, the “Combination treatment … A204” value (A204 cells) was “Additive” and the “Combination treatment … A204” value (A204 cells; listed as alisertib) was “synergy”. The “Combination treatment … G401” value (G401 cells) was “Additive”, the “Combination treatment … G401” value (G401 cells; listed as alisertib) was “synergy” and the “Antiproliferative effect of combination” value (AT/RT and MRT cell lines) was “Synergistic activity”.
